Measurements from patent US10905736B2, “Ezetimibe-associated ApoA-I mimetic peptides showing enhanced synergism” (The Regents of the University of California, priority 2016, dated 2021).
Entries after “also recorded” stand apart in the source; their conditions may differ.

Assays:
LDLR null mice [1] = assay: Plasma hydroxyeicosatetraenoic acid (HETE) levels in LDLR null mice fed Western diet for two weeks; assay type: in vivo, mouse; conditions: female LDLR null mice age 5-8 months, n=20 per group, WD two weeks, Tg6F 0.06% of diet, Ezetimibe 10 mg/kg/day
Procedure: The plasma from the mice in FIG. 1 was analyzed for 5-HETE as described (see, e.g., Navab et al. (2012) J. Lipid Res., 53: 437-445).
Female LDLR null mice age 5-8 months (n=20 per group) were fed standard mouse chow (Chow) or a Western diet high in cholesterol and fat (WD) or were fed WD+0.06% by weight of a freeze-dried concentrate of transgenic tomatoes expressing the apoA-I mimetic peptide 6F, which was prepared as previously described (see, e.g., Chattopadhyay et al. (2015) Pharma. Res. Per. 3: e00154; Chattopadhyay et al. (2016) J. Lipid Res. 57: 832-847; PCT Pub. Nos: WO 2013/148214 (PCT/US2013/031037), WO 2015/175968 (PCT/US2015/031134)) (Tg6F), or the mice were fed WD with Ezetimibe added to give a daily dose of 10 mg/kg body weight/day (WD+Ezetimibe), or the mice were fed WD with Tg6F added at 0.06% by weight plus Ezetimibe (each added separately to the diet) to give a daily dose of Ezetimibe of 10 mg/kg body weight; the Tg6F and Ezetimibe were mixed into WD as described previously (Chattopadhyay et al. (2016) J. Lipid. Res. 57: 832-847) (Combined Formulation), or the mice were fed WD to which was added ezetimibe-associated transgenic 6F peptide (Ez-tg6F) at 0.06% Tg6F by weight containing sufficient Ezetimibe to give a daily dose of 10 mg/kg body weight/day that was prepared as described herein. Specifically, the ezetimibe-associated Tg6F peptide (Ez-Tg6F) was made by adding the ezetimibe directly to a solution of ethyl acetate 5% acetic acid that had been incubated overnight at room temperature with freeze-dried tomato powder obtained from transgenic tomatoes expressing the 6F peptide, and which had been removed to a separate vessel as described previously (see, e.g., Chattopadhyay et al. (2015) Pharma. Res. Per. 3: e00154; Chattopadhyay et al. (2016) J. Lipid. Res. 57: 832-847) prior to addition of the ezetimibe. […] After feeding the diets for two weeks, the mice were bled and total plasma cholesterol levels were determined as described (Id.). […]

LDLR null mice [2] = assay: Plasma Serum Amyloid A (SAA) levels in LDLR null mice fed Western diet for two weeks; assay type: in vivo, mouse; conditions: statement over the experiments of Example 3 (single agents four out of four, Combined Formulation three out four, Novel Method three out three experiments)
Procedure: The plasma from the mice in FIG. 1 was analyzed for SAA as described as described (see, e.g., Chattopadhyay et al. (2015) Pharma. Res. Per. 3: e00154; Chattopadhyay et al. (2016) J. Lipid. Res. 57: 832-847).
Female LDLR null mice age 5-8 months (n=20 per group) were fed standard mouse chow (Chow) or a Western diet high in cholesterol and fat (WD) or were fed WD+0.06% by weight of a freeze-dried concentrate of transgenic tomatoes expressing the apoA-I mimetic peptide 6F, which was prepared as previously described (see, e.g., Chattopadhyay et al. (2015) Pharma. Res. Per. 3: e00154; Chattopadhyay et al. (2016) J. Lipid Res. 57: 832-847; PCT Pub. Nos: WO 2013/148214 (PCT/US2013/031037), WO 2015/175968 (PCT/US2015/031134)) (Tg6F), or the mice were fed WD with Ezetimibe added to give a daily dose of 10 mg/kg body weight/day (WD+Ezetimibe), or the mice were fed WD with Tg6F added at 0.06% by weight plus Ezetimibe (each added separately to the diet) to give a daily dose of Ezetimibe of 10 mg/kg body weight; the Tg6F and Ezetimibe were mixed into WD as described previously (Chattopadhyay et al. (2016) J. Lipid. […] After feeding the diets for two weeks, the mice were bled and total plasma cholesterol levels were determined as described (Id.). […]

mice = conditions: cited from earlier work

## O=C1[C@H](CC[C@H](O)c2ccc(F)cc2)[C@@H](c2ccc(O)cc2)N1c1ccc(F)cc1 [Ezetimibe, (3R,4S)-1-(4-fluorophenyl)-3-[(3S)-3-(4-fluorophenyl)-3-hydroxypropyl]-4-(4-hydroxyphenyl)azetidin-2-one]
LDLR null mice [1]; FIG. 7-8 / FIG. 17 G-H
  plasma 5-HETE levels: equally effective; also recorded: significantly decreased plasma levels of 5-HETE
LDLR null mice [1]; FIG. 9-10 / FIG. 17 I-J
  plasma 12-HETE levels: without effect; also recorded: failed to significantly decrease plasma 12-HETE and 15-HETE levels; also recorded: did not significantly alter plasma 12-HETE or 15-HETE levels
LDLR null mice [1]; FIG. 11-12 / FIG. 17 K-L
  plasma 15-HETE levels: without effect; also recorded: failed to significantly decrease plasma 12-HETE and 15-HETE levels; also recorded: did not significantly alter plasma 12-HETE or 15-HETE levels
LDLR null mice [2]
  plasma SAA levels: equally effective; also recorded: significantly decreased the levels
mice
  ED50 value: 700 µg/kg/day
